Results taken from PubChem BioAssay (NCI).
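Tested at 5 concentrations; 48 h exposure; 96-well plates; endpoints linearly interpolated, else capped at highest concentration. GI50 = concentration required for 50% inhibition of growth. At the TGI there is no net growth.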

Experiments:
Experiment in all cases: DTP human tumour cell line panel, 48 h
[1] = system: SK-OV-3 ovarian
[2] = system: NCI-H226 lung
[3] = system: 786-0 renal
[4] = system: HCT-116 colon
[5] = system: U251 CNS
[6] = system: LOX IMVI melanoma
[7] = system: A549 NSCLC
[8] = system: OVCAR-8 ovarian
[9] = system: IGROV1 ovarian

Row | Structure (SMILES) | TGI [1] [µM] | TGI [2] [µM] | TGI [3] [µM] | TGI [4] [µM] | TGI [5] [µM] | TGI [6] [µM] | TGI [7] [µM] | TGI [8] [µM] | TGI [9] [µM] | GI50 [9] [µM] | GI50 [1] [µM] | GI50 [2] [µM] | GI50 [3] [µM] | GI50 [4] [µM] | GI50 [5] [µM] | GI50 [6] [µM] | GI50 [7] [µM] | GI50 [8] [µM]
1 | CCCCCCCCCCCCCCCC(=O)OCC1OC(n2cc(F)c(=O)[nH]c2=O)C(N)C(O)C1O (centres undefined) | 45.7 | 35.9 | 35.2 | 34.4 | 32.4 | 33.1 | 33.1 | 37.1 |  |  |  |  |  |  |  |  |  | 
2 | O=C(c1ccc(Cl)cc1Cl)C1[C@H]2C(=O)N(c3ccc(Cc4ccc(N5C(=O)[C@@H]6ON(c7ccccc7)C(C(=O)c7ccc(Cl)cc7Cl)[C@@H]6C5=O)cc4)cc3)C(=O)[C@H]2ON1c1ccccc1 (some centres undefined) | > 50 | > 50 | > 50 | > 50 | > 50 | > 50 | > 50 | > 50 | > 50 |  |  |  |  |  |  |  |  | 
3 | OC1(C23CC4CC(CC(C4)C2)C3)CSCC1(O)C12CC3CC(CC(C3)C1)C2 (centres undefined) | > 100 | > 100 | > 100 | > 100 |  |  | > 100 | > 100 | > 100 |  |  |  |  |  |  |  |  | 
4 | CCOC(C[C@H](O[Si](C)(C)C(C)(C)C)[C@H]1COC(=S)S1)OCC |  | > 100 | > 100 | > 100 | > 100 | > 100 | > 100 | > 100 |  |  |  |  |  |  |  |  |  | 
5 | Cc1ccccc1C1OC(=O)c2ccc3ccccc3c21 (centres undefined) | 8.37 | 12.2 | 18.9 | 7.14 | 13.3 | 7.45 | 16.6 | 12.8 | > 31.6 |  |  |  |  |  |  |  |  | 
6 | CC(=O)[CH-]C(=O)c1ccccc1.CC(=O)[CH-]C(=O)c1ccccc1.CC[O-].CC[O-].[Hf+4] | > 100 | > 100 | > 100 | > 100 | > 100 | > 100 | > 100 | > 100 | > 100 | > 100 | > 100 | > 100 | > 100 | > 100 | > 100 | > 100 | > 100 | > 100
7 | CCCCCCC[CH2][Sn]([CH2]CCCCCCC)([O]c1cccc2cccnc12)[O]c1cccc2cccnc12 |  | 5.53 | 2.84 | 10.1 | 3.25 | 3.64 | 12 | 10.4 | 5.26 | 2.19 |  | 2.24 | 1.49 | 2.37 | 1.72 | 1.77 | 3.18 | 2.39
8 | OC(CCNC12CC3CC(CC(C3)C1)C2)c1ccccc1 (centres undefined) | > 100 | > 100 | > 100 | > 100 | > 100 |  | > 100 | > 100 | > 100 |  |  |  |  |  |  |  |  | 
9 | CC1(C)C2CCC13C(=O)C1OC3(C2)C2C(=O)c3ccccc3C(=O)C12 (centres undefined) | > 100 | > 100 | > 100 | > 100 | > 100 |  | > 100 | > 100 |  |  | > 100 | > 100 | > 100 | > 100 | > 100 |  | > 100 | > 100
10 | CN(C(=O)C12C3C4C1C1C2C3C41C(N)=O)C(C)(C)C (centres undefined) | > 100 | > 100 | > 100 | > 100 |  |  | > 100 | > 100 | > 100 |  |  |  |  |  |  |  |  | 
11 | Cc1ccc2c(c1)-c1c3c(nn1-c1ccccc1)-c1ccccc1SC3O2 (centres undefined) | > 100 |  | > 100 | > 100 | > 100 | > 100 | > 100 | > 100 | > 100 |  |  |  |  |  |  |  |  | 
12 | c1cncc(C2N3CCCCC3[C@@H]3c4[nH]c5ccccc5c4CCN23)c1 (some centres undefined) | > 100 |  | > 100 | > 100 | > 100 |  | > 100 | > 100 | > 100 |  |  |  |  |  |  |  |  | 
13 | COc1cc2ccnc3c2c(c1OC)-c1coc(SC)c1-3 | > 100 |  | > 100 | > 100 | > 100 | > 100 | > 100 | > 100 | > 100 |  |  |  |  |  |  |  |  | 
14 | CCOC(=O)/C(C1=NCCN1)=C(\O)c1ccccc1 |  | > 100 | > 100 | > 100 | > 100 | > 100 | > 100 | > 100 | > 100 |  |  |  |  |  |  |  |  | 
15 | CC(CN(C)C)/C(=N\Nc1ccccc1)c1ccccc1 (centres undefined) | 84.1 |  | 29.5 | > 100 | 5.88 | 4.16 | 2.4 | > 100 | > 100 |  |  |  |  |  |  |  |  | 
16 | O=C(O)CC[C@H](NC(=O)c1ccc(-n2nc3ccc(O)cc3nc2=O)cc1)C(=O)O |  |  | > 100 | > 100 | > 100 |  | > 100 | > 100 | > 100 |  |  |  |  |  |  |  |  | 
17 | CC(=O)Nc1ccc(S(=O)(=O)N/N=C/CN2C(=O)c3ccccc3C2=O)cc1 |  | > 100 | > 100 | > 100 | > 100 | > 100 | > 100 | > 100 | > 100 |  |  |  |  |  |  |  |  | 
18 | C=C/C=C/NC(=O)OCc1ccccc1 | > 100 |  | > 100 | > 100 | > 100 | > 100 | > 100 | > 100 | > 100 |  |  |  |  |  |  |  |  | 
